PubChem BioAssay AID493040 (Abbott Labs, 2011)
Active and inactive are the calls of the source. How the calls were made is not given here.

Key:
[1] = biological target: Cyclin-dependent kinase 2 (Homo sapiens) (UniProt P24941); assay: PubChem AID 493040; conditions: kinase panel binding, pKi; CDK2
[2] = biological target: Rho-associated protein kinase 2 (Homo sapiens) (UniProt O75116); assay: PubChem AID 493040; conditions: kinase panel binding, pKi; ROCK2
Rho-associated protein kinase 2 (Homo sapiens), sequence (O75116 whole entry, looked up): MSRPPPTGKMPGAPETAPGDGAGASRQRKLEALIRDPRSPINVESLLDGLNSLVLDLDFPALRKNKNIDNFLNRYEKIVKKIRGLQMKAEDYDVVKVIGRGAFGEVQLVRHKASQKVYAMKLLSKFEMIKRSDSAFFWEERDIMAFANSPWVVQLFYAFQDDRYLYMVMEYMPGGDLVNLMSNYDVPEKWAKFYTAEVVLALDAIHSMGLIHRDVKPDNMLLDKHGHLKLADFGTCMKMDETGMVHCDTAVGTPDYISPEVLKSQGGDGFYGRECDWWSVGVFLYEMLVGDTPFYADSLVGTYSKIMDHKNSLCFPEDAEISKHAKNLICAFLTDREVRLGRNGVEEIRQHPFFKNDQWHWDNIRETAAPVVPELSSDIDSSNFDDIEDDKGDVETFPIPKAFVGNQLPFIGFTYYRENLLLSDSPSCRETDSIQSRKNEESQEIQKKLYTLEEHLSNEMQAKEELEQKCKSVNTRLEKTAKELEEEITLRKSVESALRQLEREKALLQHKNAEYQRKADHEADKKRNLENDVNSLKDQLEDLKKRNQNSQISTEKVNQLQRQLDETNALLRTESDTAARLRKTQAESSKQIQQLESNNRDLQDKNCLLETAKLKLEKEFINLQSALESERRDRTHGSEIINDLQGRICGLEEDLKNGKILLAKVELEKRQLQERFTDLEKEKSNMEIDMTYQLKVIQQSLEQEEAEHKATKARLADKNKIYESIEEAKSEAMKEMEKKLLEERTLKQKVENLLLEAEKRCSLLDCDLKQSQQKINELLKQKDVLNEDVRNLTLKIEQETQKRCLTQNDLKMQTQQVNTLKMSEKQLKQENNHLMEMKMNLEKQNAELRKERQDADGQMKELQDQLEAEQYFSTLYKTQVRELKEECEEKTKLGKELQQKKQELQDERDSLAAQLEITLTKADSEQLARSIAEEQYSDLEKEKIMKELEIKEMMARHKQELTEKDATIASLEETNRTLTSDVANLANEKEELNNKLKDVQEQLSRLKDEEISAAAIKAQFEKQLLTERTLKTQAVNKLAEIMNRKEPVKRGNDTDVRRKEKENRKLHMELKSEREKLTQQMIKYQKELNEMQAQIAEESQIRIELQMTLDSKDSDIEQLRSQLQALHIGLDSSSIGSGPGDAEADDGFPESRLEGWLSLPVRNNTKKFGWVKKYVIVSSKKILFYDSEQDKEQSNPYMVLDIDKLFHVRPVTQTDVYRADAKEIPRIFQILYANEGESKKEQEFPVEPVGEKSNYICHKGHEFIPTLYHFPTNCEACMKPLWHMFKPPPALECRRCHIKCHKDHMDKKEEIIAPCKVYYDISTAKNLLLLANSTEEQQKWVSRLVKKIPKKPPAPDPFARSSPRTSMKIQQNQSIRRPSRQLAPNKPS

| SMILES | Ki [1] | Ki [2] |
| --- | --- | --- |
| CC(C)(O)CNc1cc(-c2c[nH]c3ncccc23)cc(Cl)n1 | 251 nM | 15.8 nM |
| Cc1ccc(Nc2nccc(Nc3ccccc3C(=O)O)n2)cc1F | 398 nM | > 7940 nM (inactive) |
| c1cnc2[nH]cc(-c3ccnc(NCC4CCCCC4)n3)c2c1 | 3.98 nM | 6.31 nM |
| NC(=O)c1ccccc1Nc1nc(Nc2ccccc2)ncc1C(F)(F)F |  | 501 nM |
| O=C(O)c1ccccc1Nc1ccnc(NCc2cccc(O)c2)n1 |  | > 7940 nM (inactive) |
| CC(C)(C)Oc1cc(-c2ccncc2)cc2[nH]nc(N)c12 | 126 nM | 50.1 nM |
| Fc1cccc(-c2c[nH]c3ncccc23)c1 | 1260 nM | 316 nM |
| NC1CCCCC1Nc1nccc(Nc2ccccc2C(=O)O)n1 (stereo unspecified) |  | > 7940 nM (inactive) |
| O=C1Nc2ccccc2Nc2cc(-c3ccncc3Cl)ccc21 | 501 nM | 631 nM |
| O=C1Nc2ccccc2Nc2cc(-c3ccncc3F)ccc21 | 398 nM | 126 nM |
| CCNC(=O)c1[nH]nc(-c2cc(Cl)c(O)cc2O)c1-c1ccc(OC)cc1 | 6310 nM | 2510 nM |
| CN(C)c1cc(-c2ccncc2)cc2[nH]nc(N)c12 | 631 nM | 79.4 nM |
| C=CCNc1cc(-c2c[nH]c3ncccc23)cc(Cl)n1 | 100 nM | 12.6 nM |
| COCC(C)Nc1cc(-c2c[nH]c3ncccc23)cc(Cl)n1 (stereo unspecified) | 158 nM | 7.94 nM |
| O=C1Nc2ccccc2Nc2cc(-c3ccncc3)ccc21 | 1000 nM | 316 nM |
| CCOC(=O)c1c[nH]n2c(=O)cc(-c3ccncc3)nc12 |  | 2000 nM |
| O=c1cc(-c2cccc(F)c2)nc2c(-c3ccc(F)cc3)c[nH]n12 |  | > 7940 nM (inactive) |
| OCCNc1cc(-c2c[nH]c3ncccc23)cc(Cl)n1 | 316 nM | 20 nM |
| NC(=O)c1ccc(-c2ccncc2)cc1NCc1cccc(F)c1 | 3160 nM | 5010 nM |
| CN(Cc1ccccc1)c1cc(-c2c[nH]c3ncccc23)cc(Cl)n1 | 31.6 nM | 20 nM |
| Cc1[nH]nc2ccc(-c3cncc(OCCN(C)S(C)(=O)=O)c3)cc12 | 501 nM | 100 nM |

| SMILES | Ki [1] | Ki [2] |
| --- | --- | --- |
| CCCn1c(=O)c2[nH]c(-c3cnn(Cc4cccc(C(F)(F)F)c4)c3)nc2n(CC)c1=O | 5010 nM |  |
| Cc1sc2[nH]c(=O)n3nc(-c4ccncc4)nc3c2c1C |  | 3980 nM |
| NC(=O)c1ccc(Nc2ncnc3[nH]cc(-c4ccccc4)c23)cc1 | 501 nM | 251 nM |
| COc1ccccc1C(=O)Nc1n[nH]c2ccc(-c3cn(Cc4ccccc4)nn3)cc12 | 251 nM | > 7940 nM (inactive) |
| NC(=O)c1ccc2c(ccn2-c2cccc(Cl)c2)c1 |  | 2510 nM |
| CCCCNc1cc(-c2c[nH]c3ncccc23)ncn1 | 200 nM | 20 nM |
| O=C1CN=C(c2cccc(Cl)c2)c2c(sc3c2CCCC3)N1 | 7940 nM |  |
| Cc1[nH]nc2ccc(-c3cncc(OCCNS(C)(=O)=O)c3)cc12 | 316 nM | 158 nM |
| CCOC(=O)c1c(NC(=O)C2C(C)(C)C2(C)C)sc2cnccc12 | 1000 nM |  |
| Cc1cc(=O)n2[nH]cc(C(=O)NCc3ccccc3)c2n1 |  | 2510 nM |
| CN(c1ccccc1-c1ccc2c(c1)Nc1ccccc1NC2=O)S(C)(=O)=O | 2000 nM |  |
| FC(F)(F)c1ccccc1CNc1nccc(-c2c[nH]c3ncccc23)n1 | 5.01 nM |  |
| NC(=O)c1ccc(-c2nc(-c3ccc4c(c3)OCO4)c(-c3ccccn3)[nH]2)cc1 |  | > 3980 nM (inactive) |
| CS(=O)(=O)Nc1ccccc1-c1ccc2c(c1)Nc1ccccc1NC2=O | 6310 nM |  |
| Fc1ccc2c(c1)-c1[nH]ncc1CS2 | 20000 nM |  |
| Cc1ccccc1-c1c(-c2ccc3n[nH]c(C)c3c2)nnn1Cc1ccccc1 | 3.98 nM |  |
| Cn1cc(-c2ccccc2)c2nc(-c3ccncc3)cc(=O)n21 |  | 3160 nM |
| O=C(Nc1ccccc1)Nc1nccs1 | 20000 nM |  |
| c1ccc(Cn2nnc(-c3ccc4[nH]ncc4c3)c2-c2ccccc2)cc1 | 63.1 nM |  |
| O=c1cc(-c2ccc(F)cc2)nc2c(-c3ccc(F)cc3)c[nH]n12 |  | > 7940 nM (inactive) |
